Experimental data published in ChEMBL document CHEMBL5058646 (2022).

Legend:
[1] = target: T1, Zinc finger and BTB domain-containing protein 44 (Homo sapiens) (UniProt Q8NCP5); settings: SUD4, Compound concentration 1.0 uM
T1 sequence (whole entry): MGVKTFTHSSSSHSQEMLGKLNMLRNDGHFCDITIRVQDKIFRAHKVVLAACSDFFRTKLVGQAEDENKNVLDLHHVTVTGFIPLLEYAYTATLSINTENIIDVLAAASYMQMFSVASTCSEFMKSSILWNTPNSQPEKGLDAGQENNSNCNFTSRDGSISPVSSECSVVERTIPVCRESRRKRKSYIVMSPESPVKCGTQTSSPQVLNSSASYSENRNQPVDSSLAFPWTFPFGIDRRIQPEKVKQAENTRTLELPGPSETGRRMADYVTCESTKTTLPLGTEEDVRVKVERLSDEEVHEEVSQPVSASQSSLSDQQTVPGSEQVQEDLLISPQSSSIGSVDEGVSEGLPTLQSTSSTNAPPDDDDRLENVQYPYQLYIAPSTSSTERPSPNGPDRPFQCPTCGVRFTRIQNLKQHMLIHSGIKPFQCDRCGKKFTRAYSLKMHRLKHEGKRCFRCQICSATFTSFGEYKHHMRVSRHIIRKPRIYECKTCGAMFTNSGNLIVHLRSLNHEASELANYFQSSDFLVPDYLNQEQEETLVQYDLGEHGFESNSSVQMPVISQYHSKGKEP

[2] = target: Histamine H1 receptor (Homo sapiens) (UniProt P35367); settings: Compound concentration 10.0 uM
Sequence of Histamine H1 receptor (Homo sapiens) (P35367 whole entry): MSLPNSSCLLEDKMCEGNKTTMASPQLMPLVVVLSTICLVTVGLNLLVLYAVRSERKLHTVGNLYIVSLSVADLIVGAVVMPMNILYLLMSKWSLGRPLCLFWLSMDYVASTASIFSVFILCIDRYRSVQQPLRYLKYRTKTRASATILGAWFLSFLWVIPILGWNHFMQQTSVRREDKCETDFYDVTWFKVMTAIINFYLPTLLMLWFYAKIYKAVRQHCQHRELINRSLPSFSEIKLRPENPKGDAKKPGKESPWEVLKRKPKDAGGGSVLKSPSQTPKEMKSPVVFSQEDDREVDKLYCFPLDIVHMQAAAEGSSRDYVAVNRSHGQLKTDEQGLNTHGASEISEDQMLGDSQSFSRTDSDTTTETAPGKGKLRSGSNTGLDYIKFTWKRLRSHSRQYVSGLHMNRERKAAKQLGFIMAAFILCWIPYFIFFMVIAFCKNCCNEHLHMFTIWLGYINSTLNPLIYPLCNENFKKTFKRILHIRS

[3] = target: T2, Transcriptional regulator Kaiso (Homo sapiens) (UniProt Q86T24); settings: SUD4, Compound concentration 1.0 uM
T2 sequence (whole entry): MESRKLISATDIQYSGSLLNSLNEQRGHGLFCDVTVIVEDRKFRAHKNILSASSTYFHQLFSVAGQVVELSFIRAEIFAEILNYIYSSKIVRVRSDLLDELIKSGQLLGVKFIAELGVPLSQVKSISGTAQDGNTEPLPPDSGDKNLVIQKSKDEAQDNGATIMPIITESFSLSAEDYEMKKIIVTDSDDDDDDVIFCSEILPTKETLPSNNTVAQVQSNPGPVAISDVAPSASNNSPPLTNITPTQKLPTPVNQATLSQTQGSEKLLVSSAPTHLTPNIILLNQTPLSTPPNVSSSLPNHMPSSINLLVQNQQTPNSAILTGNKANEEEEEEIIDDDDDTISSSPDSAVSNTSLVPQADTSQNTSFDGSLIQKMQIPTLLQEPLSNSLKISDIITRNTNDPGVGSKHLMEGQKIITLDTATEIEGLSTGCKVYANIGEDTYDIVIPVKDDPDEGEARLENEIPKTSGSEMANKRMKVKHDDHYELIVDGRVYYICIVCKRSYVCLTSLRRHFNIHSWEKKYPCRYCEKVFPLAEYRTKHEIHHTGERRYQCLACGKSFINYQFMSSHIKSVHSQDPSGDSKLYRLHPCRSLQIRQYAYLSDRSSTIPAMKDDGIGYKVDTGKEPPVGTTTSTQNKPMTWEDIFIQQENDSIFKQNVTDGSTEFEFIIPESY

[4] = target: T3, Zinc finger protein 131 (Homo sapiens) (UniProt P52739); settings: SUD4, Compound concentration 1.0 uM
T3 sequence (whole entry): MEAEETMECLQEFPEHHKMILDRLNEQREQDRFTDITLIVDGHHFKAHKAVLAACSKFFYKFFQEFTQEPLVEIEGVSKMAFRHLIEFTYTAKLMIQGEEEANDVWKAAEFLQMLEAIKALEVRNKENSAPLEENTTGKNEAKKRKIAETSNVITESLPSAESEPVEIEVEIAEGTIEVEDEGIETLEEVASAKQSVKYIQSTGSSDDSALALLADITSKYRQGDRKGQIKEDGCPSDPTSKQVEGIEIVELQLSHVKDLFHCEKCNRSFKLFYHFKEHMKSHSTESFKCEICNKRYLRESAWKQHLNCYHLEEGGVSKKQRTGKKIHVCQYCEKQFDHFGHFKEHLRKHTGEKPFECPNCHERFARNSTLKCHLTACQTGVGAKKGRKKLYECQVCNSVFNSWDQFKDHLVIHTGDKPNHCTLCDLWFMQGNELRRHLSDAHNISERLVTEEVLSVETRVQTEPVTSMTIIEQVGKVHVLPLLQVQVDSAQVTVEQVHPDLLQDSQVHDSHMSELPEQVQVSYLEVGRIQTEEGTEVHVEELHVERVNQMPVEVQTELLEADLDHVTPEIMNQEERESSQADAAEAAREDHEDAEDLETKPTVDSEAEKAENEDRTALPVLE

[5] = target: Dual specificity protein kinase CLK3 (Homo sapiens) (UniProt P49761); assay: CLK3 SGC Tm panel (DSF); settings: Compound concentration 20.0 uM
Sequence of Dual specificity protein kinase CLK3 (Homo sapiens) (P49761 whole entry, looked up): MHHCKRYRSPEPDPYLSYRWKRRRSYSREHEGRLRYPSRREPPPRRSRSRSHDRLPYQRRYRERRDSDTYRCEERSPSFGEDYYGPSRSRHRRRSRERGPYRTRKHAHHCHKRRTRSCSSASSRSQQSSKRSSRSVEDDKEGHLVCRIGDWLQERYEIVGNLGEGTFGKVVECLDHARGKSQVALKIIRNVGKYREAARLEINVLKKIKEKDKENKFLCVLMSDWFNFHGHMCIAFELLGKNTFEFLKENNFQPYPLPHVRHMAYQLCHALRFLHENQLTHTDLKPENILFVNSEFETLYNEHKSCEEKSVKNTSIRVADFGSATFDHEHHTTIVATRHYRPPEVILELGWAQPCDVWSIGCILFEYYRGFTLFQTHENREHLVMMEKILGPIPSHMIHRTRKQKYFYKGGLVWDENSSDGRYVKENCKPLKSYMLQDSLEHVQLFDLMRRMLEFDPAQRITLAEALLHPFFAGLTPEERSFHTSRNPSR

[6] = target: Serine/threonine-protein kinase DCLK1 (Homo sapiens) (UniProt O15075); assay: DCAMKL1 SGC Tm panel (DSF); settings: Compound concentration 20.0 uM
Sequence of Serine/threonine-protein kinase DCLK1 (Homo sapiens) (O15075 whole entry): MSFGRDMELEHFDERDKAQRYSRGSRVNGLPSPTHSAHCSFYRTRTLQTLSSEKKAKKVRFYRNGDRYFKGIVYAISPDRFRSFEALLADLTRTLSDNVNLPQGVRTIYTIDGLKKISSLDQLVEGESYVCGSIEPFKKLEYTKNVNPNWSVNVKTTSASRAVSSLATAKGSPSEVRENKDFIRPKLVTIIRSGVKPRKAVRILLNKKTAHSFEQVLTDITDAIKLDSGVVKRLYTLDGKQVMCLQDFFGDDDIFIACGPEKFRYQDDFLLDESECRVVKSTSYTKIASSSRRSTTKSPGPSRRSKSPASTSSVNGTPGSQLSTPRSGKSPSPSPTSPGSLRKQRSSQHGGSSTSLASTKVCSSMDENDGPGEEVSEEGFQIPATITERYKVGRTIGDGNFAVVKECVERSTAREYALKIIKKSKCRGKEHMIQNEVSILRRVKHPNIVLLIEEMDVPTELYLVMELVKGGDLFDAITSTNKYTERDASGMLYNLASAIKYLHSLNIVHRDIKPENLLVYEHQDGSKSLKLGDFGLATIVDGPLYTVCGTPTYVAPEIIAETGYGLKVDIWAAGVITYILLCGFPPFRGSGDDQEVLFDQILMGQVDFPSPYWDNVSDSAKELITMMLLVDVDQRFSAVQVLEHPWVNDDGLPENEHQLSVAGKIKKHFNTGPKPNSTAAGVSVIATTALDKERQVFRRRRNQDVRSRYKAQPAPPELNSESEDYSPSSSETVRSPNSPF

[7] = target: Serine/threonine-protein kinase 3 (Homo sapiens) (UniProt Q13188); assay: STK3 SGC Tm panel (DSF); settings: Compound concentration 20.0 uM
Sequence of Serine/threonine-protein kinase 3 (Homo sapiens) (Q13188 whole entry): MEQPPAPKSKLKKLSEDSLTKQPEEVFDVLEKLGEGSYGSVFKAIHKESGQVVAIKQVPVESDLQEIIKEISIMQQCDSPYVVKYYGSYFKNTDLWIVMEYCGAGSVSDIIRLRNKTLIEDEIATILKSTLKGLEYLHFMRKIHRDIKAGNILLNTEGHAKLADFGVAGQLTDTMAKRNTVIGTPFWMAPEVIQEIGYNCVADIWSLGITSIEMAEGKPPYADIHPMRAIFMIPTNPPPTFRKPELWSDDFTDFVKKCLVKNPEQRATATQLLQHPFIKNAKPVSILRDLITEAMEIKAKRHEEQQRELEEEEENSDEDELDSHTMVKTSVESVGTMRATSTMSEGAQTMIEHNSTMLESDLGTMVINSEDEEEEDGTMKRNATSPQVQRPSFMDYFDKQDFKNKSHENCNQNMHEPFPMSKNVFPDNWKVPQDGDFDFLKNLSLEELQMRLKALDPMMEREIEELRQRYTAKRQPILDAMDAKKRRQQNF

[8] = target: Calcium/calmodulin-dependent protein kinase kinase 2 (Homo sapiens) (UniProt Q96RR4); assay: CAMKK2 SGC Tm panel (DSF); settings: Compound concentration 20.0 uM
Sequence of Calcium/calmodulin-dependent protein kinase kinase 2 (Homo sapiens) (Q96RR4 2-588 limits assumed): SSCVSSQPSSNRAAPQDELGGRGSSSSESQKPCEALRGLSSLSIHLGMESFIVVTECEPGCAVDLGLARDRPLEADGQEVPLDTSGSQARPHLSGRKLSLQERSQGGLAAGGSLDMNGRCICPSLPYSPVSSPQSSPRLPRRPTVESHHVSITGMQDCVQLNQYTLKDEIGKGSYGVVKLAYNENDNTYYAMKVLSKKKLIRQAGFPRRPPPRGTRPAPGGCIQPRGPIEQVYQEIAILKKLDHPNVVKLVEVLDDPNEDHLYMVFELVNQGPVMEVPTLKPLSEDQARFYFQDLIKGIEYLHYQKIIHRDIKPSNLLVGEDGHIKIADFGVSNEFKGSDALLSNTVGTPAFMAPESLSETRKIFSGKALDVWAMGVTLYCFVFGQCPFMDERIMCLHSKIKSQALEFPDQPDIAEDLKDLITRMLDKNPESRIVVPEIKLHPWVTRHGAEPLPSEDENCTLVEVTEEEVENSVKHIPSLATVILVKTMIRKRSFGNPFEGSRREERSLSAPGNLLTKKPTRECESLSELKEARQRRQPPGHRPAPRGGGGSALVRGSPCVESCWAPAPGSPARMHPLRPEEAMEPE

[9] = target: T4, Telomere zinc finger-associated protein (Homo sapiens) (UniProt P10074); settings: SUD4, Compound concentration 1.0 uM
T4 sequence (whole entry): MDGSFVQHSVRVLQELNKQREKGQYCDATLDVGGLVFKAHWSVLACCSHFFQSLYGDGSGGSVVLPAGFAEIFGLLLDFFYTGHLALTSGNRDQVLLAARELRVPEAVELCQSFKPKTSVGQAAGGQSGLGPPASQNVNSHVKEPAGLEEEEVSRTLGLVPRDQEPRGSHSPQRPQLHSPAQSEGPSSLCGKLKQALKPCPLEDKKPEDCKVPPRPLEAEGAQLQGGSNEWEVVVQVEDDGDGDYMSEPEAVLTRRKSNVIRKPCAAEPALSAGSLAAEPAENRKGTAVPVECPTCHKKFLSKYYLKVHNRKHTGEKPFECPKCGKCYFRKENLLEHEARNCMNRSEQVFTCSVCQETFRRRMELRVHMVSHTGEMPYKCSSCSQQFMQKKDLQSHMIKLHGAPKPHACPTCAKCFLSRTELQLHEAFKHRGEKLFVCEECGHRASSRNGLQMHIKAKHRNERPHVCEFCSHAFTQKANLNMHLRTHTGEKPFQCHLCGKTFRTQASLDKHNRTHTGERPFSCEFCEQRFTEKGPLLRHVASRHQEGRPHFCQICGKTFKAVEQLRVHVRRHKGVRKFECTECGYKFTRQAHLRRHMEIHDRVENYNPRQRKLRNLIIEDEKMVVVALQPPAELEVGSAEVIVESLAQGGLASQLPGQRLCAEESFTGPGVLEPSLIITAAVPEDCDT

[10] = target: Zinc finger and BTB domain-containing protein 17 (Homo sapiens) (UniProt Q13105); settings: SUD4, Compound concentration 1.0 uM
Sequence of Zinc finger and BTB domain-containing protein 17 (Homo sapiens) (Q13105 whole entry, the tested form may be a part): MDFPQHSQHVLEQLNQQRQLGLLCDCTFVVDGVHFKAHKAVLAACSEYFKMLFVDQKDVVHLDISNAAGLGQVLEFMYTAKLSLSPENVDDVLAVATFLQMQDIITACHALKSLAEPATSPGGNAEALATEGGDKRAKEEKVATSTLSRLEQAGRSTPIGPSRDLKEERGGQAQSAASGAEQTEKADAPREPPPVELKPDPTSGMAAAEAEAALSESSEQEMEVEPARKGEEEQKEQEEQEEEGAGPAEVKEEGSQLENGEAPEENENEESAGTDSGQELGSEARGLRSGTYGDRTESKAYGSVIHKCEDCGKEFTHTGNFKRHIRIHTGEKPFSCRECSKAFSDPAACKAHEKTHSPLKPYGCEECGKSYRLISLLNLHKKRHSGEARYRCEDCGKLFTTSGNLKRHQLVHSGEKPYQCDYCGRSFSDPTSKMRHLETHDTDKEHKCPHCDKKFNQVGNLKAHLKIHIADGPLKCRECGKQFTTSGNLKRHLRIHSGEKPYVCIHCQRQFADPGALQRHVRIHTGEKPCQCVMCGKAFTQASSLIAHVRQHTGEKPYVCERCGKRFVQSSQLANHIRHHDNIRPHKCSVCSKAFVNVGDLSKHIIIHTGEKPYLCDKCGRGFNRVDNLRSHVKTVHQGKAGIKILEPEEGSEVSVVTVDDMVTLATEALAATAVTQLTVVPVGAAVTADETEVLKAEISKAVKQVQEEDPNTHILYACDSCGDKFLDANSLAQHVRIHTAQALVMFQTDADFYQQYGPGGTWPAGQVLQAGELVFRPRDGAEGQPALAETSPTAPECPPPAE

[11] = target: Mitogen-activated protein kinase 1 (Homo sapiens) (UniProt P28482); assay: MAPK1 SGC Tm panel (DSF); settings: Compound concentration 20.0 uM
Sequence of Mitogen-activated protein kinase 1 (Homo sapiens) (P28482 whole entry): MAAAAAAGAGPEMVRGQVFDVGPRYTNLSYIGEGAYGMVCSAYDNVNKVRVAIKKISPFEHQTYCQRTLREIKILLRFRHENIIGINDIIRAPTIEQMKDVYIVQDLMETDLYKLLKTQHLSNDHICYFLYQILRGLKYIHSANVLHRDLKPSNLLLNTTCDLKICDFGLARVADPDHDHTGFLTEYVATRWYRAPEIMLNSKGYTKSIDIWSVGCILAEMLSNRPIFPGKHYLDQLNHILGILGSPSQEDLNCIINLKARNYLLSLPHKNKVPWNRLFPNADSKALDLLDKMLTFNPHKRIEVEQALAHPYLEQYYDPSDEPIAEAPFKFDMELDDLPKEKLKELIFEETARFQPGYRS

C[C@@H]1CN(c2ncc(Cl)c(Nc3ccc4c(c3)n(CCC(C)(C)O)c(=O)n4C)n2)C[C@H](C)C1(F)F
inactive: LogFC [1] -0.235 | inhibition [2] 10.3% | LogFC [3] -0.022 | LogFC [4] 0.111 | Tm [5] 34 °C | Tm [6] 42 °C | Tm [7] 47 °C | Tm [8] 38 °C | LogFC [9] 0.0324 | LogFC [10] -0.0472 | Tm [11] 56 °C
